Experimental findings from US20020115611A1, “Methods for screening GABA-modulatory compounds for specified pharmacological activities” (priority 1999, published 2002) are described below.

Each structure is given as a SMILES string. Read-outs that look alike come from different tables or passages of the source.

Data set [1] relates to rats. Put plainly: bicuculline seizure threshold test. Format: in vivo. The conditions noted are these: rat; proconvulsant activity; NS = no statistically significant effect versus vehicle. From the text: (§1) A statistically significant effect in the spatial water maze, step-down passive avoidance, spontaneous locomotor activity, Porsolt swim test, or the elevated plus maze models is defined as p<0.05 using a valid parametric statistical test. Likewise, no statistically significant effect is defined in these models as p>0.05 using a valid parametric statistical test. No statistically significant effect for either of the seizure threshold models is defined as a decrease of less than 25% in the seizure threshold in the presence of a seizure inducing drug or a result that is not significant at the p<0.05 level.
This test provides a measure of whether the test compound is proconvulsant by measuring whether the test compound produces any change in the dose of the seizure inducing drug, bicuculline, needed to elicit seizures in rats. […]
Adult male Sprague-Dawley rats (175-300 g) are weighed and placed in a rat restrainer. […] Patency of catheter placement is tested by backflow of venous blood and ready infusion of less than 2 ml of saline solution. […]
Test compound is infused 5 minutes prior to the start of bicuculline infusion. […] The time elapsed from the start of bicuculline infusion to first myoclonic jerk (first head/neck twitch), the initiation of full myoclonus (writhing), and final forelimb extension is all recorded using a digital stopwatch. […]

The test system of data set [2] is rats. Description: step-down passive avoidance. In kind it is in vivo. The conditions noted are these: rat, IV; cognitive enhancement (Table X).
Description: as §1
In step-down passive avoidance a rat is placed on a platform located in the center of an electrified grid floor that is contained within a large (45 cm×45 cm×50 cm) white translucent Plexiglas® enclosure. The natural inclination of the rat is to step off the platform and investigate its surroundings. […] Each time the animal steps off the platform it receives a mild foot shock of 2 mAmps×6 sec. Following each shock the animal is removed from the box, placed in its cage for a one minute inter-trial interval, and then returned to the platform. The latency to step down on each trial, the number of trials taken to reach criterion during training and the retention latency are collected.
Testing is conducted approximately 24 hrs. after training. Drug-free animals are placed on the platform in the box in which they will have been trained and the latency to step down onto the grid floor is recorded for one trial as a measure of memory retention.

The target of data set [3] is α5β3γ2 GABAA subtype receptor (Homo sapiens, UniProt P18507+P31644). Description: cell-based. The conditions noted are these: human subunits, GABA at EC10. An excerpt:
(§2) The in vitro efficacy and EC50 value of the test compound may be determined by measuring the chloride flux at the surface of a cell expressing the α,β, and γ subunits of the GABAA receptor in response to GABA by the two electrode voltage-clamp technique. While a variety of cells are suitable for use herein, the preferred cells used in this technique are Xenopus laevis oocytes that have been injected with non-polyadenylated CRNA coding for human derived α, βand γ GABAA subunits. The preferred form of the γ subunit is the normally expressed long form although an alternatively spliced form may be used.
(§3) Assays are carried out as described previously in White and Gurley, 1995 and White, et al., 1995. Xenopus laevis oocytes are enzymatically isolated and injected with non-polyadenylated cRNA for human derived α, β and γ GABAA subunits, respectively. In more preferred embodiments cRNA for the α1β2γ2, α2β3γ2, α3β3γ2, and α5β3γ2 subunit combinations are injected. Only one of these subunit combinations is injected per cell. For each subunit combination, sufficient message is injected to result in current amplitudes of >10 nA when 1 μM GABA is applied. Electrophysiological recordings are carried out using the two electrode voltage-clamp technique at a membrane holding potential of −70 mV.
(§4) Compounds are evaluated against a GABA concentration that evokes <10% (EC10) of the maximal evocable GABA current. Each oocyte is exposed to increasing concentrations of compound in order to evaluate a concentration/effect relationship.
(§5) Specificity of a compound for the Ro15-1788 site is determined following completion of the concentration/effect curve. After washing the oocyte sufficiently to remove previously applied compound, the oocyte is exposed to GABA and 1 μM Ro15-1788, followed by exposure to GABA, 1 μM Ro15-1788, and compound. Percent change due to addition of compound is calculated as described above. Any percent change observed in the presence of Ro15-1788 is subtracted from the percent changes in current amplitude observed in the absence of 1 μM Ro15-1788. These net values are used for the calculation of average activity and EC50 values.
(§6) To evaluate average activity and EC50 values, the concentration/effect data are averaged across cells and fit to the logistic equation. Average values are reported as mean±standard error.

The target of data set [4] is α1β2γ2 GABAA subtype receptor (Homo sapiens, UniProt P14867+P18507). Put plainly: cell-based.
α1β2γ2 GABAA subtype receptor, sequence (P14867 28-456): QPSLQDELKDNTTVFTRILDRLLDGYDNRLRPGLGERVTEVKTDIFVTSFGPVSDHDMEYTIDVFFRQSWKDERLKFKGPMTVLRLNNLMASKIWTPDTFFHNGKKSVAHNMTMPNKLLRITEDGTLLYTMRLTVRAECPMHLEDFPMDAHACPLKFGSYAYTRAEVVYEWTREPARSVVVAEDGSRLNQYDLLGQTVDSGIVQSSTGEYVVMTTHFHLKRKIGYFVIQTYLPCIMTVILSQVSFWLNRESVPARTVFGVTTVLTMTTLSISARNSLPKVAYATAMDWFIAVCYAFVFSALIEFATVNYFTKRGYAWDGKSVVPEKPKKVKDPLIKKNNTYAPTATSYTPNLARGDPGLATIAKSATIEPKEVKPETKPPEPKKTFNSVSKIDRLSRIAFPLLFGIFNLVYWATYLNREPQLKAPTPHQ
α1β2γ2 GABAA subtype receptor, sequence (P47870 25-512 partner limits assumed): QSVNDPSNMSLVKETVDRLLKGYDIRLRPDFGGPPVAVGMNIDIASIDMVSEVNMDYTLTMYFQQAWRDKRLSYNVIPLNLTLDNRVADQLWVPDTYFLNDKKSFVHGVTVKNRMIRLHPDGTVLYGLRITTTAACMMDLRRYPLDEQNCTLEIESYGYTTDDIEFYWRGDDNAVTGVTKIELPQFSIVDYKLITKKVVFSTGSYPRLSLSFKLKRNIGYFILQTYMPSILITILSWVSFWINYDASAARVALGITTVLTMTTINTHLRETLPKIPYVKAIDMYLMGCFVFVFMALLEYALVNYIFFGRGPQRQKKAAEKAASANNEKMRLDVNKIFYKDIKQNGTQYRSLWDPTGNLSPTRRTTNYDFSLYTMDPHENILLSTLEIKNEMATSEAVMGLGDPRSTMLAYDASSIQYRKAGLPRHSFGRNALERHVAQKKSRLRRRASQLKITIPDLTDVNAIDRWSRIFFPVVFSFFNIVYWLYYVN
α1β2γ2 GABAA subtype receptor, sequence (P18507 40-475): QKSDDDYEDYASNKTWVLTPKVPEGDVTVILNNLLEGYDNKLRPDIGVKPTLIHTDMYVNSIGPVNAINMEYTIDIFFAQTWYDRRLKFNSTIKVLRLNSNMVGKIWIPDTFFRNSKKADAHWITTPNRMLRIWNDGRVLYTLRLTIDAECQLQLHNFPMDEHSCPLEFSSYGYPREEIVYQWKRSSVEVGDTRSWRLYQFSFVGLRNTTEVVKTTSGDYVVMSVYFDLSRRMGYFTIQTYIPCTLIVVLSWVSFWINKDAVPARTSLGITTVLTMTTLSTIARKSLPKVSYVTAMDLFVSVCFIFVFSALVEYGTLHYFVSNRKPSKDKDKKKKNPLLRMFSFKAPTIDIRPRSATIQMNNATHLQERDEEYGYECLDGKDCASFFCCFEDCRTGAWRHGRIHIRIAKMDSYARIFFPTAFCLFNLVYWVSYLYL
Description: as §2, §3, §4, §5, §6

Data set [5] deals with α3β3γ2 GABAA subtype receptor (Homo sapiens, UniProt P18507+P34903). Description: cell-based. The conditions noted are these: human subunits, GABA at EC10.
α3β3γ2 GABAA subtype receptor, sequence (P34903 29-492): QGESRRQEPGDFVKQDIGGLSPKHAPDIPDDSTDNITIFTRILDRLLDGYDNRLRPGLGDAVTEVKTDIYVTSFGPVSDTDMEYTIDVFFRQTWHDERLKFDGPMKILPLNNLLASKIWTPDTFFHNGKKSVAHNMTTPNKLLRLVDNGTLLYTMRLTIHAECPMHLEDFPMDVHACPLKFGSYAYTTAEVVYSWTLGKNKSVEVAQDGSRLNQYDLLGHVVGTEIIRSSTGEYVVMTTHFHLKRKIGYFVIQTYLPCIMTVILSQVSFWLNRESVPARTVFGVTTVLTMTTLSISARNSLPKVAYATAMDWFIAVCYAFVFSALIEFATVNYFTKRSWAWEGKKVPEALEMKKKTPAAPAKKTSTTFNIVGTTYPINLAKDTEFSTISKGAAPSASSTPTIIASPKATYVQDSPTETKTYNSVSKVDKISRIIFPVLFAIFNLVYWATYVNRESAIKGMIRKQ
α3β3γ2 GABAA subtype receptor, sequence (P28472 26-473 partner): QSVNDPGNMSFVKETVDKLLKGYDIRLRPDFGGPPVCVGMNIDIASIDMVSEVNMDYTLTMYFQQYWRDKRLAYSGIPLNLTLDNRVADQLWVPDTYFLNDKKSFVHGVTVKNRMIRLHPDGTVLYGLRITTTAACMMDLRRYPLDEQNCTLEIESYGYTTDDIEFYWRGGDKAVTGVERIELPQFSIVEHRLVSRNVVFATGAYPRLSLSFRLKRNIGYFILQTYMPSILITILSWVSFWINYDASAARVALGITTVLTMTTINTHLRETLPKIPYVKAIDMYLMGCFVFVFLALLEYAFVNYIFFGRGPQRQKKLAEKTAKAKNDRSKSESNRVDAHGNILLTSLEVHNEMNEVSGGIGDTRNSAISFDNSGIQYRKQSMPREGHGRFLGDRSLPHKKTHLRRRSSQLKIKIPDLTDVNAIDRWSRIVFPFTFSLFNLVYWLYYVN
α3β3γ2 GABAA subtype receptor, sequence (P18507 40-475): as the sequence (P18507 40-475) above
Description: as §2, §3, §4, §5, §6

Data set [6] has as its target α2β3γ2 GABAA subtype receptor (Homo sapiens, UniProt P18507+P47869). Put plainly: cell-based. The conditions noted are these: for EC50: human subunits, GABA at EC10.
Description: as §2, §3, §4, §5, §6

Data set [7] deals with GABAA receptors (Ro15-1788 / benzodiazepine site), rat cortex membranes. Description: Ro15-1788 competition binding assay, rat cortex membranes. The conditions noted are these: displacement of 3H Ro15-1788, rat cortex membranes. (In general: Loss of bound radioactivity is the signal in a displacement assay; it reports binding, not function.)
Description: Rat cortex membranes are prepared by homogenizing one or two previously frozen rat cortexes in 30 ml of 25 mM Tris Buffer, pH 7.4. The homogenate is centrifuged for 10 minutes at 500×g. The supernatant is then transferred to a clean centrifuge tube and the pellet discarded. The supernatant is spun for 20 minutes at 48,000×g. The supernatant from this spin is discarded and the pellet is resuspended in 30 ml of 25 mM Tris Buffer, pH 7.4 and centrifuged for an additional 10 minutes at 48,000×g. The supernatant from the final spin is discarded and the membrane pellet is resuspended in 100 mL Tris buffer per gram of cortex used.
The cortex membrane preparation is used to perform either percent inhibition or competition binding assays. In order to determine percent inhibition 300 μl of resuspended membranes are mixed with 200 μl ^3H labeled Ro15-1788 (final concentration 2.5 nM) and incubated for 1 hour on ice in the presence of 2 μl test compound in DMSO (final concentration 4 μM). Membranes are harvested onto untreated filtermats. The filtermats are dried and the ^3H Ro15-1788 signal is counted in a scintillation counter. Nonspecific binding is determined by displacement of ^3H Ro15-1788 with 10 μM Diazepam (RBI) or any other compound known to bind tightly at the benzodiazepine site.
Ki values are calculated according to the Cheng-Prussof equation.
For data set [8], the system named is rats. Put plainly: Porsolt forced swim test. Format: in vivo. The conditions noted are these: rat, administered IV; antidepressant effect.
Description: as §1
The effects measured in this model have been correlated to antidepressant efficacy for drugs. The paradigm of this model is that an effective antidepressant compound will cause a rat to make greater attempts to escape a water-filled cylinder than a rat given vehicle only.
Animals used in this study were non-naive male Sprague Dawley Rats (SASCO, St. Louis) weighing between 280-350 grams. The test apparatus consists of 6 clear Plexiglas cylinders 40 cm high×19 cm wide. Cylinders are filled to 18 cm with 25° C. water. Each rat is placed in a cylinder for a 15 minute training session. Following either subchronic or acute dosing of either vehicle (0.5% methylcellulose) of compound, animals are brought back 24 hours later for a 5 minute test session. These test session is videotaped for later scoring.
Subchronic dosing consists of administering drug three times in the 24-hour period between training and testing. The drug is administered 24 hrs., 5 hrs., and 1 hr. prior to the test session. Acute dosing consists of administering the drug once, 1 hour prior to the test session. Scoring is done using a time-sampling computer program written in Visual Basic and run in DOS. […] These sampling score are then converted into percentages of the test session.

Data set [9] relates to rats. Put plainly: spontaneous locomotor activity. Format: in vivo. The conditions noted are these: rat, IV; sedation as side effect (Tables V and IX); NS = no statistically significant effect over dose range.
Description: as §1
Spontaneous locomotor activity can be measured to determine sedative effects of compounds. Locomotor activity is measured in eight computerized Digiscan-16 Animal Activity Monitors (Omnitech Electronics, Columbus, Ohio) equipped with 48 infrared photocell emitters and detectors. Each box is constructed of Plexiglas sides and floor. Horizontal activity is detected by a set of horizontal sensors on the front to back walls and a second group of sensors on the side to side walls located 5 cm above the cage floor. Vertical activity is detected by a third set of sensors on the side to side walls located 13.5 cm above the cage floor. The rats are tested in the presence of white noise (62 dB) and red light (60 watt). […]

The mark [10] stands for this setting: oocyte electrophysiology EC50 α5β3γ2, Xenopus laevis oocytes.
Setting [11] is: oocyte electrophysiology EC50 α1β2γ2, Xenopus laevis oocytes, human subunits, GABA at EC10.
The mark [12] stands for this setting: oocyte electrophysiology EC50 α3β3γ2, Xenopus laevis oocytes.
Setting [13] is: oocyte electrophysiology EC50 α2β3γ2, Xenopus laevis oocytes.

α2β3γ2 GABAA subtype receptor, sequence (P47869 29-451): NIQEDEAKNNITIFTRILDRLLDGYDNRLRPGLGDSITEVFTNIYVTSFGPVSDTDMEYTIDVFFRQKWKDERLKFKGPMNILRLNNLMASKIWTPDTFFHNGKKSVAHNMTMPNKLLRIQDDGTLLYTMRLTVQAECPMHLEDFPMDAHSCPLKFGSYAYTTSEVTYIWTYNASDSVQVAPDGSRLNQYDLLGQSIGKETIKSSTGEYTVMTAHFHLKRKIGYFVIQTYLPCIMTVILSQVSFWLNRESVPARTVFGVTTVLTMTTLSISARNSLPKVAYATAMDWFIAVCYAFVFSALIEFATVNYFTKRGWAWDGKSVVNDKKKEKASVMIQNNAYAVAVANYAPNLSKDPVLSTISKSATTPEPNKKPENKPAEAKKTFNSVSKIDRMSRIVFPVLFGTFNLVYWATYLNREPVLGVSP
α2β3γ2 GABAA subtype receptor, sequence (P28472 26-473 partner): as the sequence (P28472 26-473 partner) above
α2β3γ2 GABAA subtype receptor, sequence (P18507 40-475): as the sequence (P18507 40-475) above
α5β3γ2 GABAA subtype receptor, sequence (P31644 32-462): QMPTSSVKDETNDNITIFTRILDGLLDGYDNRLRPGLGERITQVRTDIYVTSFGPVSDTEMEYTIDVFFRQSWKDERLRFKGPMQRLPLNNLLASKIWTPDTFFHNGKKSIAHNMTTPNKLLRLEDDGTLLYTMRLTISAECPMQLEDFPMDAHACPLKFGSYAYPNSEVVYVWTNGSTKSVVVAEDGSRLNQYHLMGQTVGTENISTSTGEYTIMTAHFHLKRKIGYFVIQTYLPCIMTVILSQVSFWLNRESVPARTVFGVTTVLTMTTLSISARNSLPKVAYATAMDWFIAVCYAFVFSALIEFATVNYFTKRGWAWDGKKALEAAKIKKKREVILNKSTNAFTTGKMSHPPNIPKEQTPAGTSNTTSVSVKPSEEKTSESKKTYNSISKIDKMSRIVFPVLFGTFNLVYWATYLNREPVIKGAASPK
α5β3γ2 GABAA subtype receptor, sequence (P28472 26-473 partner): as the sequence (P28472 26-473 partner) above
α5β3γ2 GABAA subtype receptor, sequence (P18507 40-475): as the sequence (P18507 40-475) above

In general, EC50 refers to the midpoint of the concentration-response curve. The Ki is a dissociation constant, usually derived from enzyme kinetics or from competition with a known ligand. The low end stands for a stronger hold on the target, the high end for a looser hold on the target. As for `O=C1C2C=Nc3ccccc3C2=NN1c1ccccc1` (centres unmarked) [CGS 8216, reference compound], the “bicuculline seizure threshold, mean percent decrease in seizure threshold over the dose range studied” value with rats [1] is listed as 50%. In addition, the “cognitive model: step-down passive avoidance, minimal efficacious dose” value with rats [2] was determined as 0.06 mg/kg. Besides, the “oocyte electrophysiology maximum potentiation α5β3γ2” value in data set [3] (Xenopus laevis oocytes, negative = inverse agonism) was −39%. Further, the EC50 in [3] (setting [10]) worked out at 1 nM; in data set [4] (setting [11]) it was 0.7 nM; in data set [5] (setting [12]) it was 2 nM; in data set [6] (setting [13]), 2 nM. The “oocyte electrophysiology maximum potentiation α1β2γ2” value in [4] (Xenopus laevis oocytes, human subunits, GABA at EC10, negative = inverse agonism) is −26%. The compound further came in with a Ki in [7] of 0.2 nM.

In the case of `CC(C)(C)OC(=O)c1ncn2c1C1CCCN1C(=O)c1c(Br)cccc1-2` (centres unmarked) [Ro16-6028, reference compound], the “Porsolt swim test, minimal efficacious dose” value in the data set with rats [8] came to 1 mg/kg. The “spontaneous locomotor activity, minimal efficacious dose” value with rats [9] worked out at 0.06 mg/kg.

On to `CCOc1ccc(NC(=O)c2c[nH]c3c2C(=O)CCC3)cc1` [compound 3], for which the “Porsolt swim test, minimal efficacious dose” value in the data set with rats [8] is listed as 20 mg/kg. Moreover, the EC50 is 186 nM in [3] (Xenopus laevis oocytes, read-out: oocyte electrophysiology EC50 α5β3γ2); 36 nM in data set [3] (setting [10]); 107 nM in data set [4] (Xenopus laevis oocytes, human subunits, GABA at EC10, read-out: oocyte electrophysiology EC50 α1β2γ2); 33 nM in [4] (setting [11]); 133 nM in data set [5] (Xenopus laevis oocytes, read-out: oocyte electrophysiology EC50 α3β3γ2); 23 nM in data set [5] (setting [12]). For the same compound, the EC50 turned out to be 108 nM in data set [6] (Xenopus laevis oocytes, read-out: oocyte electrophysiology EC50 α2β3γ2) and 12 nM in data set [6] (setting [13]). For the same compound, the Emax is 26% in data set [4] (read-out: oocyte electrophysiology maximum potentiation α1β2γ2) and 52% in [6] (read-out: oocyte electrophysiology maximum potentiation α2β3γ2). The “spontaneous locomotor activity, minimal efficacious dose” value in the data set with rats [9] was 4 mg/kg.
